{
  "source": "patent EP0567613B1",
  "about": "“COMPOSITIONS FOR THERAPY AND PREVENTION OF CANCER” (The Government of the United States of America, as …, priority 1991, dated 1993)",
  "key": {"Astrocytoma U373": {"tested_on": "Astrocytoma U373", "assay": "Tumor cell growth / proliferation", "assay_type": "cell-based", "conditions": "Homo sapiens"}, "HLA-A": {"tested_on": "HLA-A", "assay": "Northern blot analysis of HLA-A mRNA in HL-60", "assay_type": "cell-based, human", "conditions": "HL-60, NaPA 0.8 and 1.6 mg/ml", "method": "Cytoplasmic RNA (20 µg/lane) was subjected to Northern blot analysis using ^32P-labeled specific DNA probes. Ethidium bromide-stained […] indicates the relative amounts of total RNA in each lane. Figure A. Induction of a P2 expression in 10T1/2 cells. […] Figure B. Kinetics of myc inhibition and HLA-A induction in HL-60. […] Figure C. Dose-dependent and specificity of effect.\nIn HL-60, cell transformation has been linked to myc amplification and overexpression, and differentiation would typically require down regulation of myc expression. [Collins, S.J. The HL-60 promyelocytic leukemia cell line: Proliferation, differentiation, and cellular oncogene expression. Blood. 70:1233-1244 (1987)]. […] The 32P-labeled probes used were myc 3rd exon (Oncor) and HLA-A3 Hind III/EcoRI fragment. […] This occurred within 4 hours of treatment, preceding the phenotypic changes detectable by 48 hrs, approximately two cell cycles, after treatment. Similar kinetics of myc inhibition have been reported for other differentiation agents such as dimethyl sulfoxide, sodium butyrate, bromodeoxyuridine, retinoids, and 1,25-dihydroxyvitamin D3. […] It is believed that this may enhance the immunogenicity of tumors in vivo."}, "HL-60 [1]": {"tested_on": "HL-60", "assay": "Cell proliferation (cell number)", "assay_type": "cell-based, human", "method": "The adherent cells were detached with trypsin/EDTA and the cell number determined using a hemocytometer. Data points indicate the mean ± S.D. of duplicates from two independent experiments. The cell lines were obtained from the American Type Culture Collection and maintained in RPMI 1640 (HL-60) or Dulbecco's Modified Eagle's Medium (10T1/2) supplemented with 10% heat inactivated fetal calf serum (Gibco Laboratories), 2 mM L-Glutamine, and antibiotics."}, "Prostatic Ca LaNCoP": {"tested_on": "Prostatic Ca LaNCoP", "assay": "Tumor cell growth / proliferation", "assay_type": "cell-based", "conditions": "read-out: % Inhibition by NaPA 0.8 mg/ml"}, "HL-60 [2]": {"tested_on": "HL-60", "assay": "Granulocyte differentiation (NBT reduction, morphology) and viability by trypan blue exclusion", "method": "The number of NBT positive cells was determined after 4 [solid bars] or 7 days [hatched bar] of treatment. […] Glutamine Starvation (Gln, < 0.06 mM) was as described (18).\nThe ability of cells to reduce nitroblue tetrazolium (NBT) is indicative of oxidase activity which is characteristic of the more mature forms of human bone marrow granulocytes. NBT reduction thus serves as an indicator of granulocyte differentiation. […] Glutamine starvation (Gln, < 0.06 mM) was as described. […] DON, ACV and HPA are glutamine antagonists."}, "[3]": {"tested_on": "the malignant or the normal cells", "assay": "Cytotoxicity in tissue culture", "assay_type": "cell-based", "conditions": "growth-inhibitory concentrations", "source_text": "(§1) A differential effect was seen also in ras-transformed fibrosarcoma V7T, when compared to the parental non-tumorigenic N1H3T3 cells.\n(§2) The concentration range found to selectively suppress malignant growth can be readily obtained in the clinical setting without causing significant side effects."}, "[4]": {"assay": "Cytotoxicity in tissue culture", "assay_type": "cell-based", "conditions": "tissue culture; read-out: concentration at which cytotoxicity was observed", "source_text": "as §1, §2"}, "lung adenocarcinoma H661": {"tested_on": "lung adenocarcinoma H661", "assay": "Tumor cell growth / proliferation", "assay_type": "cell-based", "conditions": "Homo sapiens, NCI-H661; read-out: concentration causing about 50% inhibition of growth"}, "Astrocytoma U87": {"tested_on": "Astrocytoma U87", "assay": "Tumor cell growth / proliferation", "assay_type": "cell-based"}, "Melanoma SK MEL 28": {"tested_on": "Melanoma SK MEL 28", "assay": "Tumor cell growth / proliferation", "assay_type": "cell-based", "conditions": "Homo sapiens"}, "Kaposi's Sarcoma KS": {"tested_on": "Kaposi's Sarcoma KS", "assay": "Tumor cell growth / proliferation", "assay_type": "cell-based", "conditions": "read-out: % Inhibition by NaPA 0.8 mg/ml"}, "Malignant Melanoma A375": {"tested_on": "Malignant Melanoma A375", "assay": "Tumor cell growth / proliferation"}, "[5]": {"tested_on": "NIH 3T3 cells carrying activated EJras oncogene", "assay": "Prevention of neoplastic transformation, oncogene transfer (ras-transformed foci)", "assay_type": "cell-based", "conditions": "treatment initiated 24-48 hr after oncogene transfer, scored 14-21 days later", "source_text": "Left: Untreated control cells at about 3 weeks after DNA transfer. Middle: control of cells with as oncogenes, showing the rate of spontaneous transformation. Right: Oncogene-transfected cells, […] with NaPA.\nThe effect was reversible upon cessation of treatment. In treated humans, however, the fate of the premalignant cells may be substantially different due to involvement of humoral and cellular immunity (see below)."}, "Osteosarcoma HOS": {"tested_on": "Osteosarcoma HOS", "assay": "Tumor cell growth / proliferation", "assay_type": "cell-based", "conditions": "read-out: % Inhibition by NaPA 0.8 mg/ml", "source_text": "(§3) • # 7-10 For effective responses, the tumors may require much higher drug concentrations if used alone.\nas §1"}, "Fibrosarcoma V7T": {"tested_on": "Fibrosarcoma V7T", "assay": "Tumor cell growth / proliferation", "assay_type": "cell-based", "source_text": "as §3, §1"}, "Osteosarcoma KRIB": {"tested_on": "Osteosarcoma KRIB", "assay": "Tumor cell growth / proliferation", "assay_type": "cell-based", "source_text": "as §3, §1"}, "10T1/2 cells": {"tested_on": "10T1/2 cells", "assay": "Neoplastic foci formation in culture", "conditions": "800-1600 µg/ml for seven weeks", "source_text": "[…] The cells were then subcultured in the absence of the nucleoside analog for an additional seven weeks. […] For the tumorigenicity assay, 4-5 week-old female athymic nude mice were inoculated s.c. with 1 x 10^6 cells and observed for tumor growth at the site of injection."}, "Astrocytoma U343": {"tested_on": "Astrocytoma U343", "assay": "Tumor cell growth / proliferation", "assay_type": "cell-based"}, "4C8a10 cells": {"tested_on": "4C8a10 cells", "assay": "Malignant phenotype in culture / growth on matrigel", "assay_type": "cell-based", "method": "The experimental model involved nonmalignant 4C8a10 cells (revertants of Haras-transformed NIH3T3 fibroblasts). […]\n^b Cells were plated on top of matrigel (reconstituted basement membrane) and observed for malignant growth pattern, i.e., active replication, development of characteristic processes, and invasion."}, "[6]": {"conditions": "after seven days of NaPA treatment, or four days when combined with RA"}, "[7]": {"conditions": "read-out: % Inhibition by NaPA 0.8 mg/ml, 0.8 mg/ml"}, "[8]": {"conditions": "read-out: concentration causing about 50% inhibition of growth"}},
  "data": [
    {"molecule": "O=C([O-])Cc1ccccc1.[Na+]", "note": "[NaPA, sodium phenylacetate]", "values": [
      {"measurement": "IC50", "setting": "Astrocytoma U373; U373 MG, read-out: concentration causing about 50% inhibition of growth", "result": "400 to 800", "unit": "µg/mL"},
      {"measurement": "inhibition at 800 µg/mL", "setting": "Astrocytoma U373; read-out: % Inhibition by NaPA 0.8 mg/ml, U373, 0.8 mg/ml", "result": "≥ 50", "unit": "%"},
      {"measurement": "HLA-A mRNA", "setting": "HLA-A", "result": "time- and dose-dependent accumulation of HLA-A mRNA"},
      {"measurement": "inhibition at 800 µg/mL", "setting": "HL-60 [1]; Homo sapiens, read-out: % Inhibition by NaPA 0.8 mg/ml, HL-60, 0.8 mg/ml", "result": "≤ 40", "unit": "%"},
      {"measurement": "cell proliferation", "setting": "HL-60 [1]; treated for four days", "result": "dose dependent inhibition of cell proliferation"},
      {"measurement": "inhibition at 800 µg/mL", "setting": "Prostatic Ca LaNCoP", "result": "> 50", "unit": "%"},
      {"measurement": "granulocyte differentiation (NBT positive cells)", "setting": "HL-60 [2]; NaPA 0.8 and 1.6 mg/ml, 4 or 7 days", "result": "capable of inducing granulocyte differentiation in HL-60"},
      {"measurement": "banded and segmented neutrophils capable of NBT", "setting": "HL-60 [2]; [6]", "result": "30-40%"},
      {"measurement": "early stage myelocytes and metamyelocytes", "setting": "HL-60 [2]; [6]", "result": "30-50%"},
      {"measurement": "toxicity of the treatment to cells", "setting": "[3]", "result": "not toxic to either the malignant or the normal cells"},
      {"measurement": "MCC", "setting": "[4]", "result": "> 3000", "unit": "µg/mL"},
      {"measurement": "IC50", "setting": "lung adenocarcinoma H661", "result": "400 to 800", "unit": "µg/mL"},
      {"measurement": "IC50", "setting": "Astrocytoma U87; Homo sapiens, U-87 MG, read-out: concentration causing about 50% inhibition of growth", "result": "400 to 800", "unit": "µg/mL"},
      {"measurement": "inhibition at 800 µg/mL", "setting": "Astrocytoma U87; [7]", "result": "≥ 50", "unit": "%"},
      {"measurement": "inhibition at 800 µg/mL", "setting": "Melanoma SK MEL 28; [7]", "result": "> 50", "unit": "%"},
      {"measurement": "IC50", "setting": "Melanoma SK MEL 28; [8]", "result": "400 to 800", "unit": "µg/mL"},
      {"measurement": "inhibition at 800 µg/mL", "setting": "Kaposi's Sarcoma KS", "result": "≤ 40", "unit": "%"},
      {"measurement": "concentration causing about 50% inhibition of growth", "setting": "Malignant Melanoma A375; A375", "result": "0.4 to 0.8", "unit": "mg/mL"},
      {"measurement": "% Inhibition by NaPA 0.8 mg/ml", "setting": "Malignant Melanoma A375; A375, 0.8 mg/ml, within one week of treatment", "result": "≥ 70", "unit": "%"},
      {"measurement": "Growth", "setting": "Malignant Melanoma A375; NaPA 400 µg/ml", "result": "63.3 % of control"},
      {"measurement": "Viability", "setting": "Malignant Melanoma A375; NaPA 400 µg/ml", "result": "> 95", "unit": "%"},
      {"measurement": "formation of ras-transformed foci", "setting": "[5]", "result": "dose-dependent reduction in the formation of ras-transformed foci"},
      {"measurement": "inhibition at 800 µg/mL", "setting": "Osteosarcoma HOS", "result": "< 20", "unit": "%"},
      {"measurement": "inhibition at 800 µg/mL", "setting": "Fibrosarcoma V7T; [7]", "result": "≤ 30", "unit": "%"},
      {"measurement": "IC50", "setting": "Fibrosarcoma V7T; [8]", "result": "1000 to 1500", "unit": "µg/mL"},
      {"measurement": "inhibition at 800 µg/mL", "setting": "Osteosarcoma KRIB; [7]", "result": "≤ 30", "unit": "%"},
      {"measurement": "IC50", "setting": "Osteosarcoma KRIB; [8]", "result": "1000 to 1500", "unit": "µg/mL"},
      {"measurement": "neoplastic foci in vitro and tumors in recipient mice", "setting": "10T1/2 cells", "result": "forming neither neoplastic foci in vitro nor tumors in recipient mice"},
      {"measurement": "IC50", "setting": "Astrocytoma U343; astrocytoma 343, read-out: concentration causing about 50% inhibition of growth", "result": "400 to 800", "unit": "µg/mL"},
      {"measurement": "inhibition at 800 µg/mL", "setting": "Astrocytoma U343; read-out: % Inhibition by NaPA 0.8 mg/ml, U343, 0.8 mg/ml", "result": "≥ 50", "unit": "%"},
      {"measurement": "Growth on matrigel", "setting": "4C8a10 cells; NaPA 1.5 mg/ml", "result": "-"},
      {"measurement": "development of the malignant phenotype", "setting": "4C8a10 cells; in 5-AzadC treated cultures", "result": "prevented the development of the malignant phenotype"}
    ]}
  ]
}
